# Results published in patent US5580869A, “1N substituted pyrazino[2,3-c]-1,2,6-thiadiazine 2,2-dioxides” (Prodesfarma, S.A., priority 1992, dated 1996).
# Like-named read-outs stand apart in the source and are kept apart here.
# Legend:
# [1] = tested on: isolated guinea pig trachea; experiment: In vitro trachea relaxing activity (spontaneous tone in isolated trachea, method of Luduena); assay type: cell-based; details: Cavia porcellus, relative to maximum relaxation by noradrenaline 0.3 mcg/ml; for activity at 30 µg/mL: 30 mcg/ml
# Procedure: The platelet antiaggregation activity was determined in vitro using platelet rich rabbit plasma and arachidonic acid (50 mcg/ml) as aggregation inducing agent. The results are given for tracheal relaxation as percentage inhibition of the tracheal tone relative to the maximum relaxation induced by noradrenaline (0.3 mcg/ml) and for the platelet aggregation as a percentage of the maximum effect observed with the proaggregation agent.
# rats = experiment: Diuretic and saluretic activity (urine volume and electrolyte excretion over 6 h), technique of Lipschits et al.; assay type: in vivo; details: rat; for response vs control in vivo at 20 mg/kg: 20 mg/kg po; for response vs control in vivo at 25 mg/kg: 25 mg/kg po; for response vs control in vivo at 10 mg/kg: 10 mg/kg po; for response vs control in vivo at 40 mg/kg: 40 mg/kg po
# Procedure: The synthesized compounds were, therefore, subjected a pharmacological screening to evaluate a possible diuretic and salt excreting activity. Thus, an acute dose of each of the products of synthesis (20 or 25 mg/kg) was administered to rats and the amount of urine and the excretion of electrolytes was measured, following the technique described by Lipschits et al., with certain modifications (J. Pharmacol. Exp.Ther. 1943-79; 97-110).
# The volume (ml/kg/6 h), the pH and the excretion of sodium, potassium and chloride ions (mEq/kg/6 h) were determined on the urine quantitatively collected over 6 hours, using triamterene and hydrochlorothiazide as reference diuretics.
# [2] = Mortality rate in the mouse after a single oral dose of 1600 mg/kg; details: in vivo, single oral dose 1600 mg/kg
# Procedure: Likewise, to complete the superficial pharmacological profile, a check was made of the mortality rate in the mouse after oral administration of a single dose of 1600 mg/kg of each of the synthesized compounds (See Table 1).
# [3] = (N) = not statistically significant vs control, read-out: Cl excretion, treated group/control group ratio
# [4] = (N) = not statistically significant vs control, read-out: K excretion, treated group/control group ratio
# [5] = (N) = not statistically significant vs control, read-out: Na excretion, treated group/control group ratio
# [6] = (N) = not statistically significant vs control, read-out: Na/K
# [7] = (N) = not statistically significant vs control, read-out: Volume urine, treated group/control group ratio
# [8] = read-out: Cl excretion, treated group/control group ratio
# [9] = read-out: K excretion, treated group/control group ratio
# [10] = read-out: Na excretion, treated group/control group ratio
# [11] = read-out: Volume urine, treated group/control group ratio
SMILES,activity at 30 µg/mL [1] [%],response vs control in vivo at 20 mg/kg (rats; [3]) [%],response vs control in vivo at 20 mg/kg (rats; [4]) [%],response vs control in vivo at 20 mg/kg (rats; [5]) [%],response vs control in vivo at 20 mg/kg (rats; [6]) [%],response vs control in vivo at 20 mg/kg (rats; [7]) [%],mortality [2] [%],response vs control in vivo at 25 mg/kg (rats; [3]) [%],response vs control in vivo at 25 mg/kg (rats; [4]) [%],response vs control in vivo at 25 mg/kg (rats; [5]) [%],response vs control in vivo at 25 mg/kg (rats; [7]) [%],other results
CCc1nc2c(nc1C)C(NN)=NS(=O)(=O)N2CC,72,,,,,,,,,,,
"CCc1nc2c(nc1CC)N(CC)S(=O)(=O)N=C2N [1,6,7-triethyl, 4-amino-1,6,7-triethylpyrazino[2,3-c]-1,2,6-thiadiazine 2,2-dioxide]",,216,127,198,156,133,50,,,,,
"CCc1nc2c(nc1C)N(CC)S(=O)(=O)N=C2N [1,6-diethyl-7-methyl, 4-amino-1,6-diethyl-7-methylpyrazino[2,3-c]-1,2,6-thiadiazine 2,2-dioxide]",95,89,91,56,62,104,,,,,,
"CCc1nc2c(nc1C)C(NC)=NS(=O)(=O)N2CC [1,7-diethyl-4-(methylamino)-6-methyl, 1,7-diethyl-4-(methylamino)-6-methylpyrazino[2,3-c]-1,2,6-thiadiazine 2,2-dioxide]",75,424,155,344,156,139,,,,,,
"CCc1nc2c(nc1C)C(N)=NS(=O)(=O)N2CC [1,7-diethyl-6-methyl, 4-amino-1,7-diethyl-6-methylpyrazino[2,3-c]-1,2,6-thiadiazine 2,2-dioxide]",,,,,,,37.5,787,179,823,197,response vs control in vivo at 25 mg/kg (rats; read-out: Na/K): 460%
"Cc1nc2c(nc1C)N(CCO)S(=O)(=O)N=C2N [1-(2-hydroxyethyl)-6,7-dimethyl, 4-amino-1-(2-hydroxyethyl)-6,7-dimethylpyrazino[2,3-c]-1,2,6-thiadiazine 2,2-dioxide]",,,,,,,0,141,189,203,106,response vs control in vivo at 25 mg/kg (rats; read-out: Na/K): 107%
"Cc1nc2c(nc1C)N(CCN1CCOCC1)S(=O)(=O)N=C2N [1-(2-morpholinoethyl)-6,7-dimethyl, 4-amino-1-(2-morpholinoethyl)-6,7-dimethylpyrazino[2,3-c]-1,2,6-thiadiazine 2,2-dioxide]",,,,,,,85,102,112,246,108,response vs control in vivo at 25 mg/kg (rats; read-out: Na/K): 220%
"CCOC(=O)CN1c2nc(-c3ccccc3)cnc2C(N)=NS1(=O)=O [1-[(2-ethoxycarbonyl)-methyl]-7-phenyl, 4-amino-1-[(ethoxycarbonyl)methyl]-7-phenylpyrazino[2,3-c]-1,2,7-thiadiazine 2,2-dioxide]",72,,,,,,,,,,,
"CCN1c2nc(C(F)(F)F)c(C(F)(F)F)nc2C(N)=NS1(=O)=O [1-ethyl-6,7-bis(trifluoromethyl), 4-amino-1-ethyl-6,7-bis(trifluoromethyl)pyrazino[2,3-c]-1,2,6-thiadiazine 2,2-dioxide]",,,,,,,100,112,99,129,128,response vs control in vivo at 25 mg/kg (rats; read-out: Na/K): 130%
"CCCN1c2nc(CC)c(C)nc2C(N)=NS1(=O)=O [1-ethyl-6-methyl-1-propyl, 4-amino-7-ethyl-6-methyl-1-propylpyrazino[2,3-c]-1,2,6-thiadiazine 2,2-dioxide]",,530,172,502,292,154,40,,,,,
"CCCc1nc2c(nc1C)C(N)=NS(=O)(=O)N2CC [1-ethyl-6-methyl-7-propyl, 4-amino-1-ethyl-6-methyl-7-propylpyrazino[2,3-c]-1,2,6-thiadiazine 2,2-dioxide]",,176,123,156,127,109,50,,,,,
"CCN1c2nc(-c3ccccc3)cnc2C(N)=NS1(=O)=O [1-ethyl-7-phenyl, 4-amino-1-ethyl-7-phenylpyrazino[2,3-c]-1,2,6-thiadiazine 2,2-dioxide]",95,136,140,131,94,121,,,,,,
"Cc1nc2c(nc1C)N(CCN(C(C)C)C(C)C)S(=O)(=O)N=C2N [4-amino-1-[2-(N,N-diisopropylamino)ethyl]-6,7-dimethylpyrazino[2,3-c]-1,2,6-thiadiazine 2,2-dioxide]",,,,,,,62,156,94,193,84,response vs control in vivo at 25 mg/kg (rats; read-out: Na/K): 205%
"CCCN1c2nc(C)c(C)nc2C(N)=NS1(=O)=O [6,7-dimethyl-1-propyl, 4-amino-6,7-dimethyl-1-propylpyrazino[2,3-c]-1,2,6-thiadiazine 2,2-dioxide]",,593,197,609,309,175,60,,,,,
"CCN1c2nc(C)c(Br)nc2C(N)=NS1(=O)=O [6-bromo-1-ethyl-7-methyl, 4-amino-6-bromo-1-ethyl-7-methylpyrazino[2,3-c]-1,2,6-thiadiazine 2,2-dioxide]",88,,,,,,,,,,,
"CCc1nc2c(nc1C)C(N)=NS(=O)(=O)N2C [7-ethyl-1,6-dimethyl, 4-amino-7-ethyl-1,6-dimethylpyrazino[2,3-c]-1,2,6-thiadiazine 2,2-dioxide]",95,471,177,385,218,152,0,,,,,
"Nc1cc(-c2ccncc2)c[nH]c1=O [Amrinone, reference compound]",,,,,,,,,,,,activity at 3 µg/mL ([1]; 3 mcg/ml): 65%
"NS(=O)(=O)c1cc2c(cc1Cl)NCNS2(=O)=O [Hydrochlorothiazide, reference compound]",,,,,,,,,,,,response vs control in vivo at 10 mg/kg (rats; [8]): 577%; response vs control in vivo at 10 mg/kg (rats; [9]): 217%; response vs control in vivo at 10 mg/kg (rats; [10]): 668%; response vs control in vivo at 10 mg/kg (rats; read-out: Na/K): 308%; response vs control in vivo at 10 mg/kg (rats; [11]): 166%; response vs control in vivo at 40 mg/kg (rats; [8]): 626%; response vs control in vivo at 40 mg/kg (rats; [9]): 265%; response vs control in vivo at 40 mg/kg (rats; [10]): 773%; response vs control in vivo at 40 mg/kg (rats; read-out: Na/K): 292%; response vs control in vivo at 40 mg/kg (rats; [11]): 179%
"Nc1nc(N)c2nc(-c3ccccc3)c(N)nc2n1 [Triamterene, reference compound]",,237,34,579,,145,,260,36,596,165,
